Results reported in patent US10183079B2, “Hydrogel microspheres containing peptide ligands for growth factor regulation in blood products” (Wisconsin Alumni Research Foundation, priority 2016, dated 2019).
Square brackets hold non-standard residues; d marks the D form. Primed or numbered codes have the meaning given here. Ends that are not written are not given here. PEG27′ = polyethylene glycol 27 spacer; βAla = NCCC(=O)O

Experiments:
[1] = tested on: choroidal neovascularization; experiment: Mouse choroidal neovascularization model; format: in vivo; conditions: 2 μL/eye
Protocol: Microspheres (generated via sonication) were sanitized either by washing in 70% ethanol or by exposing to UV for 30 minutes prior to injection. Microspheres (F-VBP, F-Scramble, N-VBP, and N-Scramble) were suspended at 2 mg/mL in sterile PBS on the day of experiments. Soluble VBP or Scramble peptide (purchased from GenScript) were dissolved, sterile filtered through 0.2 μm filter, and diluted to 20 μg/mL in sterile PBS before experiments. SU4312 (Sigma) was dissolved in DMSO at 5 μg/mL, and Eylea (Regeneron Pharmaceuticals) was dissolved in PBS at 40 μg/mL and sterile filtered through 0.2 μm filter.
The mouse choroidal neovascularization model was generated as described in FIG. 8A. Briefly, C57BL/6J mice (Jackson Laboratories; 6-weeks old female) eyes were dilated using a drop of tropicamide (1%), and mice were anesthetized with ketamine and xylazine. Mice were subjected to photocoagulation (75 μm spot size, 0.1 s duration, 120 mW) at the 3-, 9-, and 12-o'clock positions of the posterior pole of the eye using an OcuLight GL diode laser (Iridex) with a glass coverslip over the eye. Microspheres were injected into each eye (2 μL/eye) using a pump microinjection apparatus (Harvard Apparatus) or Hamilton syringe. […] The area of ICAM-2+ staining (defined as mean CNV area) at each position (3-, 9-, and 12-o'clock) was quantified using Fiji and automated image thresholding. […]

[2] = tested on: iPSC-EC; experiment: iPSC-EC proliferation, xCELLigence cell index; format: cell-based; conditions: 5 ng/mL VEGF, 48-hour culture; for iPSC-EC proliferation (cell index): soluble peptide
Protocol: Soluble branched VBP containing a PEG-27 spacer (C{βA}K({βA}{PEG-27}KSAPYEWNFDI{Ld}{Yd}{Ad}{Fd}E)2 (SEQ ID NO:10) was synthesized as described above using fmoc solid-phase peptide synthesis, wherein each amino acid after the branch point was added at 8 molar excess relative to the resin free amines with a corresponding 8 molar excess of DIPEA and 4 molar excess of HBTU during the coupling reaction. Peptide purity was assessed using reverse-phase high performance liquid chromatograph, and peptide identity was assessed using matrix-assisted laser desorption time-of-flight spectrometry. Peptide content was assessed using Ellman's assay for free thiol, and both soluble branched VBP2, PEG-27 and VBP2,a were dissolved in PBS for use in cell culture assay. The influence of soluble branched peptides on iPSC-EC proliferation was established using ACEA xCELLigence RTCA-DP. iPSC-EC used in this Example were cultured in iCell-EC Growth Medium (as described in Example 1 above), were passaged using TrypLE, and were used between passage 4-8 for experiments. E-plates (containing gold electrodes on the bottom of each well) were first coated with Fibronectin (Corning) and were seeded with iPSC-EC at a density of 6000 cells/cm^2. Seeded E-plates were cultured on RTCA-DP overnight in Growth Medium, and on the day of experiments, medium was removed and replaced with medium containing 0.1 vol % supplement (CDI) in VascuLife (LifeLine) and L-glutamine (LifeLine) and containing 5 ng/mL VEGF (LifeLine) and the specified concentrations of either VBP2, PEG-27 or VBP2,a. iPSC-EC proliferation was assessed by monitoring the cell index (indicating cell coverage over the gold-coated wells) over a 48-hour period in culture, and at the end of the 48-hour culture, cell indices were averaged for two replicate wells per condition. Statistical analysis at the end of the experiment was performed using two-way analysis of variance (ANOVA) and Tukey's post-hoc test for α=0.05.

For `Cc1cc(C)c(/C=C2\C(=O)Nc3ccccc32)[nH]1` [SU5416], the “mean CNV area, small-molecule inhibitor” value ([1]; 5 μg/mL in DMSO, vehicle control) was “inhibit angiogenesis in this model”.

In the case of “(E{Fd}{Ad}{Yd}{Ld}IDFNWEYPASK)2KC (E[dF][dA][dY][dL]IDFNWEYPASKE[dF][dA][dY][dL]IDFNWEYPASKKC-NH2; also: branched dimer: two arms on K33) [VBP2,a]”, the “iPSC-EC proliferation (cell index) at 5 μM” value ([2]; 5 μM soluble peptide) is reported as “inhibited proliferation at a much greater extent than the VBP2, PEG27” and the “iPSC-EC proliferation (cell index)” value [2] is reported as “inhibited iPSC-EC proliferation in culture with VEGF”.

With “C{βA}K({βA}{PEG-27}KSAPYEWNFDI{Ld}{Yd}{Ad}{Fd}E)2 (C[βAla]K[βAla][PEG27′]KSAPYEWNFDI[dL][dY][dA][dF]E[βAla][PEG27′]KSAPYEWNFDI[dL][dY][dA][dF]E; not fully specified (C-terminus); numbers in words are those of the source; also: branched dimer: two arms on K3) [VBP2, PEG27]” the “iPSC-EC proliferation (cell index)” value [2] was “inhibited iPSC-EC proliferation in culture with VEGF”.

In the case of “Eylea: commercial anti-angiogenesis compound (Regeneron Pharmaceuticals), soluble VEGF inhibitor protein”, the “mean CNV area, Eylea” value ([1]; 40 μg/mL, control IgG) is reported as “inhibit angiogenesis in this model”.
